Data published in US7417156B2, “Orally active, antimalarial, anticancer, artemisinin-derived trioxane dimers” (Johns Hopkins University, priority 2002, dated 2008).

Assays:
U251 = test: NCI 60 cell line panel screen (SRB); assay type: cell-based, human
OVCAR-8 = test: NCI 60 cell line panel screen (SRB); assay type: cell-based, human
OVCAR-3 = test: NCI 60 cell line panel screen (SRB); assay type: cell-based, human
PC-3 = test: NCI 60 cell line panel screen (SRB); assay type: cell-based, human
KM12 = test: NCI 60 cell line panel screen (SRB); assay type: cell-based, human
[1] = test system: chloroquine-sensitive P. falciparum (NF54); test: Antimalarial activity in vitro, [3H]hypoxanthine incorporation; assay type: cell-based; conditions: Table I; NF54 strain; read-out: IC50
60 cell line panel = assay type: cell-based
M14 = test: NCI 60 cell line panel screen (SRB); assay type: cell-based, human
SK-MEL-28 = test: NCI 60 cell line panel screen (SRB); assay type: cell-based, human
SK-MEL-2 = test: NCI 60 cell line panel screen (SRB); assay type: cell-based, human
MCF7 = test: NCI 60 cell line panel screen (SRB); assay type: cell-based, human
NCI-H23 = test: NCI 60 cell line panel screen (SRB); assay type: cell-based, human
HCT-15 = test: NCI 60 cell line panel screen (SRB); assay type: cell-based, human
NCI/ADR-RES = test: NCI 60 cell line panel screen (SRB); assay type: cell-based, human
HOP-92 = test: NCI 60 cell line panel screen (SRB); assay type: cell-based, human
NCI-H460 = test: NCI 60 cell line panel screen (SRB); assay type: cell-based, human
MALME-3M = test: NCI 60 cell line panel screen (SRB); assay type: cell-based, human
RPMI-8226 = test: NCI 60 cell line panel screen (SRB); assay type: cell-based, human
SF-268 = test: NCI 60 cell line panel screen (SRB); assay type: cell-based, human
HL-60(TB) = test: NCI 60 cell line panel screen (SRB); assay type: cell-based, human
RXF 393 = test: NCI 60 cell line panel screen (SRB); assay type: cell-based, human
HCT-116 = test: NCI 60 cell line panel screen (SRB); assay type: cell-based, human
K-562 = test: NCI 60 cell line panel screen (SRB); assay type: cell-based, human
SNB-75 = test: NCI 60 cell line panel screen (SRB); assay type: cell-based, human
CAKI-1 = test: NCI 60 cell line panel screen (SRB); assay type: cell-based, human
COLO 205 = test: NCI 60 cell line panel screen (SRB); assay type: cell-based, human
CCRF-CEM = test: NCI 60 cell line panel screen (SRB); assay type: cell-based, human
[2] = mean value over the 60 cell line panel

CC1CCC2C(C)C(CC(COC(=O)CCC(=O)O)CC3OC4OC5(C)CCC6C(C)CCC(C3C)C46OO5)OC3OC4(C)CCC1C32OO4 (centres unmarked) [Compound 8a, bis-trioxane primary succinate monoester]
Log10GI50 (U251; CNS Cancer, U251): −8.20 | Log10LC50 (U251; U251 (CNS Cancer), LC50: PG=−50): >−4.30 log10M | Log10TGI50 (U251; U251 (CNS Cancer), TGI: PG=0): >−4.30 log10M | Log10LC50 (OVCAR-8; OVCAR-8 (Ovarian Cancer), LC50: PG=−50): >−4.30 log10M | Log10TGI50 (OVCAR-8; OVCAR-8 (Ovarian Cancer), TGI: PG=0): >−4.30 log10M | Log10GI50 (OVCAR-8; Ovarian Cancer, OVCAR-8): >−4.30 | Log10LC50 (OVCAR-3; OVCAR-3 (Ovarian Cancer), LC50: PG=−50): >−4.30 log10M | Log10TGI50 (OVCAR-3; OVCAR-3 (Ovarian Cancer), TGI: PG=0): −8.21 log10M | Log10GI50 (OVCAR-3; Ovarian Cancer, OVCAR-3): <−8.30 | Log10LC50 (PC-3; PC-3 (Prostate Cancer), LC50: PG=−50): >−4.30 log10M | Log10TGI50 (PC-3; PC-3 (Prostate Cancer), TGI: PG=0): >−4.30 log10M | Log10GI50 (PC-3; Prostate Cancer, PC-3): <−8.30 | Log10GI50 (KM12; Colon Cancer, KM12): <−8.30 | Log10LC50 (KM12; KM12 (Colon Cancer), LC50: PG=−50): −4.60 log10M | Log10TGI50 (KM12; KM12 (Colon Cancer), TGI: PG=0): <−8.30 log10M | IC50 [1]: 2 nM | Log10GI50 Delta (60 cell line panel): 1.29 | Log10GI50 Range (60 cell line panel): 4.00 | Log10LC50 Delta (60 cell line panel; 60 cell line panel): 0.46 | Log10LC50 Range (60 cell line panel; 60 cell line panel): 0.48 | Log10TGI50 Delta (60 cell line panel; 60 cell line panel): 3.26 | Log10TGI50 Range (60 cell line panel; 60 cell line panel): 4.00 | growth inhibition in words (60 cell line panel; colon cancer KM12, ovarian cancer OVCAR 3, breast cancer MDA-MB-435): selectively and strong inhibitory | Log10GI50 MG MID (60 cell line panel; mean over panel): −7.01 | Log10LC50 MG MID (60 cell line panel; [2]): −4.32 log10M | Log10TGI50 MG MID (60 cell line panel; [2]): −5.04 log10M | Log10LC50 (M14; M14 (Melanoma), LC50: PG=−50): >−4.30 log10M | Log10TGI50 (M14; M-14 (Melanoma), TGI: PG=0): >−4.30 log10M | Log10GI50 (M14; Melanoma, M14): −6.94 | Log10GI50 (SK-MEL-28; Melanoma, SK-MEL-28): −6.09 | Log10LC50 (SK-MEL-28; SK-MEL-28 (Melanoma), LC50: PG=−50): >−4.30 log10M | Log10TGI50 (SK-MEL-28; SK-MEL-28 (Melanoma), TGI: PG=0): >−4.30 log10M | Log10GI50 (SK-MEL-2; Melanoma, SK-MEL-2): −5.12 | Log10LC50 (SK-MEL-2; SK-MEL2 (Melanoma), LC50: PG=−50): >−4.30 log10M | Log10TGI50 (SK-MEL-2; SK-MEL-2 (Melanoma), TGI: PG=0): >−4.30 log10M | Log10GI50 (MCF7; Breast Cancer, MCF7): <−8.30 | Log10LC50 (MCF7; MCF7 (Breast Cancer), LC50: PG=−50): >−4.30 log10M | Log10TGI50 (MCF7; MCF7 (Breast Cancer), TGI: PG=0): >−4.30 log10M | Log10LC50 (NCI-H23; NCI-H23 (Non-Small Cell Lung Cancer), LC50: PG=−50): >−4.30 log10M | Log10TGI50 (NCI-H23; NCI-H23 (Non-Small Cell Lung Cancer), TGI: PG=0): >−4.30 log10M | Log10GI50 (NCI-H23; Non-Small Cell Lung Cancer, NCI-H23): <−8.30 | Log10GI50 (HCT-15; Colon Cancer, HCT-15): <−8.30 | Log10LC50 (HCT-15; HCT-15 (Colon Cancer), LC50: PG=−50): >−4.30 log10M | Log10TGI50 (HCT-15; HCT-15 (Colon Cancer), TGI: PG=0): −5.61 log10M | Log10GI50 (NCI/ADR-RES; Breast Cancer, NCI/ADR-RES): −5.64 | Log10LC50 (NCI/ADR-RES; NCI/ADR-RES (Breast Cancer), LC50: PG=−50): >−4.30 log10M | Log10TGI50 (NCI/ADR-RES; NCI/ADR-RES (Breast Cancer), TGI: PG=0): >−4.30 log10M | Log10LC50 (HOP-92; HOP-92 (Non-Small Cell Lung Cancer), LC50: PG=−50): >−4.30 log10M | Log10TGI50 (HOP-92; HOP-92 (Non-Small Cell Lung Cancer), TGI: PG=0): >−4.30 log10M | Log10GI50 (HOP-92; Non-Small Cell Lung Cancer, HOP-92): −6.56 | Log10LC50 (NCI-H460; NCI-H460 (Non-Small Cell Lung Cancer), LC50: PG=−50): >−4.30 log10M | Log10TGI50 (NCI-H460; NCI-H460 (Non-Small Cell Lung Cancer), TGI: PG=0): >−4.30 log10M | Log10GI50 (NCI-H460; Non-Small Cell Lung Cancer, NCI-H460): <−8.30 | Log10LC50 (MALME-3M; MALME-3M (Melanoma), LC50: PG=−50): >−4.30 log10M | Log10TGI50 (MALME-3M; MALME-3M (Melanoma), TGI: PG=0): −6.82 log10M | Log10GI50 (MALME-3M; Melanoma, MALME-3M): <−8.30 | Log10GI50 (RPMI-8226; Leukemia, RPMI-8226): <−8.30 | Log10LC50 (RPMI-8226; RPMI-8226 (Leukemia), LC50: PG=−50): >−4.30 log10M | Log10TGI50 (RPMI-8226; RPMI-8226 (Leukemia), TGI: PG=0): −6.19 log10M | Log10GI50 (SF-268; CNS Cancer, SF-268): −7.11 | Log10LC50 (SF-268; SF-268 (CNS Cancer), LC50: PG=−50): >−4.30 log10M | Log10TGI50 (SF-268; SF-268 (CNS Cancer), TGI: PG=0): >−4.30 log10M | Log10LC50 (HL-60(TB); HL-60(TB) (Leukemia), LC50: PG=−50): >−4.30 log10M | Log10TGI50 (HL-60(TB); HL-60(TB) (Leukemia), TGI: PG=0): −7.61 log10M | Log10GI50 (HL-60(TB); Leukemia, HL-60(TB)): <−8.30 | Log10LC50 (RXF 393; RXF 393 (Renal Cancer), LC50: PG=−50): >−4.30 log10M | Log10TGI50 (RXF 393; RXF 393 (Renal Cancer), TGI: PG=0): −6.77 log10M | Log10GI50 (RXF 393; Renal Cancer, RXF 393): <−8.30 | Log10GI50 (HCT-116; Colon Cancer, HCT-116): <−8.30 | Log10LC50 (HCT-116; HCT-116 (Colon Cancer), LC50: PG=−50): >−4.30 log10M | Log10TGI50 (HCT-116; HCT-116 (Colon Cancer), TGI: PG=0): >−4.30 log10M | Log10LC50 (K-562; K-562 (Leukemia), LC50: PG=−50): >−4.30 log10M | Log10TGI50 (K-562; K-562 (Leukemia), TGI: PG=0): >−4.30 log10M | Log10GI50 (K-562; Leukemia, K-562): <−8.30 | Log10GI50 (SNB-75; CNS Cancer, SNB-75): −6.47 | Log10LC50 (SNB-75; SNB-75 (CNS Cancer), LC50: PG=−50): >−4.30 log10M | Log10TGI50 (SNB-75; SNB-75 (CNS Cancer), TGI: PG=0): >−4.30 log10M | Log10LC50 (CAKI-1; CAKI-1 (Renal Cancer), LC50: PG=−50): >−4.30 log10M | Log10TGI50 (CAKI-1; CAKI-1 (Renal Cancer), TGI: PG=0): >−5.99 log10M | Log10GI50 (CAKI-1; Renal Cancer, CAKI-1): −6.84 | Log10LC50 (COLO 205; COLO 205 (Colon Cancer), LC50: PG=−50): 4.78 log10M | Log10TGI50 (COLO 205; COLO 205 (Colon Cancer), TGI: PG=0): −6.29 log10M | Log10GI50 (COLO 205; Colon Cancer, COLO 205): <−8.30 | Log10LC50 (CCRF-CEM; CCRF-CEM (Leukemia), LC50: PG=−50): >−4.30 log10M | Log10TGI50 (CCRF-CEM; CCRF-CEM (Leukemia), TGI: PG=0): >−4.30 log10M | Log10GI50 (CCRF-CEM; Leukemia, CCRF-CEM): <−8.30
